Common to all, as to assay type: functional
In test [1] the test system is Aspergillus flavus. Kind of test: Antifungal activity against Aspergillus flavus at 100 ug/ml after 48 hr by paper disk diffusion method. As to conditions: read-out: IZ.
Test [2] deals with Klebsiella aerogenes. Nature of the test: Antibacterial activity against Enterobacter aerogenesat 50 ug/ml after 24 hr by agar cup-plate method.
Test [3] concerns Rhizopus arrhizus. Nature of the test: Antifungal activity against Rhizopus oryzae at 100 ug/ml after 48 hr by paper disk diffusion method. The conditions noted are these: for zone of inhibition at 100 µg/mL: read-out: IZ. For orientation: A growth-free zone around the sample is the usual read-out of agar diffusion tests.
Test [4] relates to Bacillus subtilis. Nature of the test: Antibacterial activity against Bacillus subtilis at 50 ug/ml after 24 hr by agar cup-plate method. As to conditions: read-out: DIZ.
In test [5] the test system is Aspergillus niger. Kind of test: Antifungal activity against Aspergillus niger at 50 ug/ml after 48 hr by paper disk diffusion method. As to conditions: read-out: IZ.
Test [6] has as its system Aspergillus niger. Kind of test: Antifungal activity against Aspergillus niger at 100 ug/ml after 48 hr by paper disk diffusion method. The conditions noted are these: read-out: IZ.
For test [7], the system named is Rhizopus arrhizus. Nature of the test: Antifungal activity against Rhizopus oryzae at 50 ug/ml after 48 hr by paper disk diffusion method. The conditions noted are these: for zone of inhibition at 50 µg/mL: read-out: IZ.
For test [8], the system named is Aspergillus flavus. Kind of test: Antifungal activity against Aspergillus flavus at 50 ug/ml after 48 hr by paper disk diffusion method. As to conditions: read-out: IZ.
The subject of test [9] is Pseudomonas syringae. Kind of test: Antibacterial activity against Pseudomonas syringae at 50 ug/ml after 24 hr by agar cup-plate method. The conditions noted are these: read-out: DIZ.
Test [10] concerns Paracoccus denitrificans. Kind of test: Antibacterial activity against Paracoccus denitrificans at 50 ug/ml after 24 hr by agar cup-plate method. As to conditions: read-out: DIZ.
Test [11] deals with Pseudomonas syringae. Nature of the test: Antibacterial activity against Pseudomonas syringae at 4 ug/ml after 24 hr by agar cup-plate method. As to conditions: read-out: DIZ.
The subject of test [12] is Klebsiella aerogenes. Kind of test: Antibacterial activity against Enterobacter aerogenes at 4 ug/ml after 24 hr by agar cup-plate method. As to conditions: read-out: DIZ.
Test [13] deals with Paracoccus denitrificans. Kind of test: Antibacterial activity against Paracoccus denitrificans at 4 ug/ml after 24 hr by agar cup-plate method. The conditions noted are these: read-out: DIZ.
For test [14], the system named is Bacillus subtilis. Nature of the test: Antibacterial activity against Bacillus subtilis at 4 ug/ml after 24 hr by agar cup-plate method. As to conditions: read-out: DIZ.

Active and inactive are the calls of the source. No cut-off for these calls is given here.

The values below come from ChEMBL document CHEMBL3044582, “Nontraditional approaches to the synthesis of some biologically active substituted p-benzoquinones” (2008).

Consider `O=C1C(Cl)=C(Nc2ccc(Cl)cc2)C(=O)C(Cl)=C1Nc1ccc(Cl)cc1`, for which the figures for the zone of inhibition at 100 µg/mL in the test with Aspergillus flavus [1], in the test on Rhizopus arrhizus [3] and with Aspergillus niger [6] were 13 mm, 10 mm and 10 mm, respectively. In the test on Klebsiella aerogenes [2], the “diameter of the inhibition zone (DIZ)” value is listed as 13 mm. In addition, the zone of inhibition at 50 µg/mL was found to be 10 mm with Bacillus subtilis [4]; 10 mm with Aspergillus niger [5]; 3 mm with Rhizopus arrhizus [7]; 10 mm in the test on Aspergillus flavus [8]; 10 mm in the test with Pseudomonas syringae [9]; 10 mm with Paracoccus denitrificans [10].
For `COc1ccccc1NC1=C(Cl)C(=O)C(Nc2ccccc2OC)=C(Cl)C1=O`, the zone of inhibition at 100 µg/mL was 10 mm with Aspergillus flavus [1], 10 mm in the test with Rhizopus arrhizus [3] and 13 mm with Aspergillus niger [6]. Further, the “diameter of the inhibition zone (DIZ)” value in the test with Klebsiella aerogenes [2] is reported as 10 mm. In addition, the zone of inhibition at 50 µg/mL in the test with Bacillus subtilis [4] was found to be 3 mm; with Aspergillus niger [5] it was 10 mm; with Rhizopus arrhizus [7], 3 mm; in the test on Aspergillus flavus [8], 3 mm; in the test on Pseudomonas syringae [9], 3 mm; in the test on Paracoccus denitrificans [10], 13 mm.
For `Cc1ccccc1NC1=C(Cl)C(=O)C(Nc2ccccc2C)=C(Cl)C1=O`, the zone of inhibition at 100 µg/mL in the test with Aspergillus flavus [1] and in the test with Aspergillus niger [6] was 3 mm throughout. Moreover, in the test on Klebsiella aerogenes [2], the “diameter of the inhibition zone (DIZ)” value is reported as 3 mm. Further, the “inhibition zone (IZ)” value in the test on Rhizopus arrhizus [3] and with Rhizopus arrhizus [7] was “inactive” each time. The zone of inhibition at 50 µg/mL in the test with Bacillus subtilis [4], in the test on Aspergillus niger [5], in the test on Aspergillus flavus [8], with Pseudomonas syringae [9] and with Paracoccus denitrificans [10] was 3 mm each time.
Take `CCn1cc(C(=O)O)c(=O)c2cc(F)c(N3CCNCC3)cc21` [NORFLOXACIN]: the zone of inhibition at 4 µg/mL in the test on Pseudomonas syringae [11] was over 21 mm; in the test with Klebsiella aerogenes [12] it was over 21 mm; in the test with Paracoccus denitrificans [13], 13 mm; with Bacillus subtilis [14], over 21 mm.
With `O=C1C(Cl)=C(Nc2ccccc2F)C(=O)C(Cl)=C1Nc1ccccc1F`, the zone of inhibition at 100 µg/mL in the test with Aspergillus flavus [1] was 13 mm; with Rhizopus arrhizus [3], 13 mm; in the test on Aspergillus niger [6], over 21 mm. Moreover, the “diameter of the inhibition zone (DIZ)” value in the test with Klebsiella aerogenes [2] is given as 13 mm. Further, the zone of inhibition at 50 µg/mL in the test with Bacillus subtilis [4] is over 21 mm; with Aspergillus niger [5], 13 mm; with Rhizopus arrhizus [7], 10 mm; in the test on Aspergillus flavus [8] it was 10 mm; with Pseudomonas syringae [9] it was 13 mm; in the test on Paracoccus denitrificans [10] it was over 21 mm.
In the case of `Cc1ccc(NC2=C(Cl)C(=O)C(Nc3ccc(C)cc3)=C(Cl)C2=O)cc1`, the zone of inhibition at 100 µg/mL in the test on Aspergillus flavus [1] and in the test on Aspergillus niger [6] was 10 mm in each case. Moreover, the “diameter of the inhibition zone (DIZ)” value with Klebsiella aerogenes [2] is “inactive”. The “inhibition zone (IZ)” value with Rhizopus arrhizus [3] and with Rhizopus arrhizus [7] was “inactive” in each case. Besides, the zone of inhibition at 50 µg/mL was 3 mm in the test on Bacillus subtilis [4]; 3 mm in the test on Aspergillus niger [5]; 3 mm in the test on Aspergillus flavus [8]; 3 mm in the test on Pseudomonas syringae [9]; 10 mm in the test with Paracoccus denitrificans [10].
For `O=C1C(Cl)=C(Nc2ccccc2)C(=O)C(Cl)=C1Nc1ccccc1`, the results for the zone of inhibition at 100 µg/mL in the test on Aspergillus flavus [1], in the test on Rhizopus arrhizus [3] and with Aspergillus niger [6] were 3 mm, 3 mm and 10 mm, respectively. Moreover, in the test on Klebsiella aerogenes [2], the “diameter of the inhibition zone (DIZ)” value was “inactive”. Also, the zone of inhibition at 50 µg/mL in the test with Bacillus subtilis [4] worked out at 3 mm; in the test with Aspergillus niger [5] it was 3 mm; with Aspergillus flavus [8] it was 3 mm; with Pseudomonas syringae [9], 10 mm; in the test on Paracoccus denitrificans [10], 10 mm. Besides, in the test on Rhizopus arrhizus [7], the “inhibition zone (IZ)” value was “inactive”.
As to `COC1=CC(=O)C[C@@H](C)[C@]12Oc1c(Cl)c(OC)cc(OC)c1C2=O` [GRISEOFULVIN], the zone of inhibition at 100 µg/mL in the test with Aspergillus flavus [1], in the test on Rhizopus arrhizus [3] and with Aspergillus niger [6] was over 21 mm throughout. Further, the zone of inhibition at 50 µg/mL in the test on Aspergillus niger [5], with Rhizopus arrhizus [7] and in the test with Aspergillus flavus [8] was over 21 mm throughout.
On to `O=C1C(Cl)=C(Nc2ccc(F)cc2)C(=O)C(Cl)=C1Nc1ccc(F)cc1`, for which the zone of inhibition at 100 µg/mL with Aspergillus flavus [1] is 13 mm; in the test with Rhizopus arrhizus [3] it was 13 mm; with Aspergillus niger [6], over 21 mm. Also, the “diameter of the inhibition zone (DIZ)” value in the test on Klebsiella aerogenes [2] turned out to be 10 mm. Moreover, the zone of inhibition at 50 µg/mL with Bacillus subtilis [4] is over 21 mm; with Aspergillus niger [5] it was 13 mm; in the test with Rhizopus arrhizus [7] it was 10 mm; in the test with Aspergillus flavus [8], 13 mm; with Pseudomonas syringae [9] it was 13 mm; in the test on Paracoccus denitrificans [10] it was 13 mm.
As to `O=C1C(Cl)=C(Nc2ccc(Br)cc2)C(=O)C(Cl)=C1Nc1ccc(Br)cc1`, the zone of inhibition at 100 µg/mL with Aspergillus flavus [1] is 13 mm; in the test on Rhizopus arrhizus [3], 13 mm; with Aspergillus niger [6], over 21 mm. Besides, the “diameter of the inhibition zone (DIZ)” value with Klebsiella aerogenes [2] was 10 mm. Besides, the zone of inhibition at 50 µg/mL in the test on Bacillus subtilis [4] is 13 mm; in the test with Aspergillus niger [5], 10 mm; with Rhizopus arrhizus [7] it was 3 mm; in the test on Aspergillus flavus [8] it was 10 mm; with Pseudomonas syringae [9] it was 10 mm; with Paracoccus denitrificans [10], 13 mm.
Take `COc1ccc(NC2=C(Cl)C(=O)C(Nc3ccc(OC)cc3)=C(Cl)C2=O)cc1`: the zone of inhibition at 100 µg/mL is 13 mm in the test on Aspergillus flavus [1], 3 mm with Rhizopus arrhizus [3] and 10 mm in the test with Aspergillus niger [6]. In addition, the “diameter of the inhibition zone (DIZ)” value in the test on Klebsiella aerogenes [2] was determined as 3 mm. For the same compound, the zone of inhibition at 50 µg/mL turned out to be 10 mm with Bacillus subtilis [4]; 3 mm in the test with Aspergillus niger [5]; 10 mm in the test with Aspergillus flavus [8]; 10 mm in the test on Pseudomonas syringae [9]; 13 mm in the test on Paracoccus denitrificans [10]. Moreover, the “inhibition zone (IZ)” value with Rhizopus arrhizus [7] was “inactive”.
For the compound `O=C1C(Cl)=C(Nc2ccccc2Cl)C(=O)C(Cl)=C1Nc1ccccc1Cl`, the zone of inhibition at 100 µg/mL in the test on Aspergillus flavus [1], with Rhizopus arrhizus [3] and in the test with Aspergillus niger [6] was 13 mm in each case. Further, the “diameter of the inhibition zone (DIZ)” value in the test on Klebsiella aerogenes [2] is given as 10 mm. Also, the zone of inhibition at 50 µg/mL was 13 mm with Bacillus subtilis [4]; 10 mm in the test with Aspergillus niger [5]; 10 mm in the test with Rhizopus arrhizus [7]; 10 mm in the test on Aspergillus flavus [8]; 10 mm with Pseudomonas syringae [9]; 13 mm in the test with Paracoccus denitrificans [10].
